For data set [1], the system named is Staphylococcus aureus ATCC 6538. The data set is described as follows: germicidal efficiency test (modified serial dilution; time to complete sterilization), Table A. The format is cell-based. Conditions: pH 7.0. The method, then:
The compounds are thus useful as bactericidal agents.
(§1) The compounds of the invention and certain reference compounds were tested in the germidical efficiency test, a modification of the standard serial dilution test, against Staphylococcus aureus ATCC 6538. In the germicidal efficiency test, instead of determining the minimum inhibitory concentration as in the serial dilution test procedure, the time required to effect complete sterilization of the micro-organism when exposed to a given concentration of the test substance is determined. This procedure affords a basis of comparison of the time dependent efficacies of the various test substances which gives a measure not only of the germidical efficacy of the test species but, since as will be seen germicidal efficiency of the N-chloro compounds generally tends to diminish with time, apparently owing to decomposition of, and therefore dilution of, the active species, the test procedure also provides an indication of the efficacy to be expected at varying time intervals after solution of the test species in the application medium. The test procedure is described as follows: A stock solution of known concentration of each compound to be tested was prepared in 0.1M sodium dihydrogen phosphate buffered to pH 7.0. To 5 ml. of the test solution was added 0.2 ml. of an overnight broth culture containing from 6×10^6 to 8×10^6 organisms/ml. of Staphylococcus aureus ATCC 6538 and 5 g. of gelysate peptone and 3 g. of beef extract per 1000 ml. of water. At time intervals of 0.5, 1, 2, 3, 4, 5, 6, 7, 8, 9, 10, 15 and 30 minutes, a loop of this suspension was subcultured into 5 ml. of sterile nutrient broth (5 g. of gelysate peptone and 3 g. of beef extract/1000 ml. of water), and the samples were incubated at 37° C. for 7 days with daily observation for evidence of bacterial growth. The time interval in which no bacterial growth was observed after the incubation period in a particular sample was recorded as the end point.
(§2) The germicidal kill times so-obtained at various concentrations of the compounds of the invention and of certain reference compounds are given in Table A below. The compounds are identified in each case by the Example number above where the compounds are described. Here and elsewhere in the specification that follows, concentrations are expressed in parts per million (ppm) of "positive" chlorine, which was determined in each instance by addition of excess aqueous potassium iodide to an acidified solution of the test compound and titration of the iodine liberated with standard sodium thiosulfate solution.

Data set [2] has the same test system. Description: contact germicidal (bactericidal) time before and after 14 day incubation of solutions at 40° C., Table B. It is filed as cell-based. Conditions: pH 7.0; for bactericidal activity after the test period (in words): after 14 days at 40° C.; for Bc Time, initial: before incubation, at initial ppm +Cl of the same line. The method, then: as §1
(§3) The stabilities and the time-dependent efficacies of the claimed and reference species were determined by comparing the contact germicidal times and the initial and final concentrations of positive chlorine in solutions of the test species in 0.1M sodium dihydrogen phosphate buffered to pH 7.0 before and after 14 day incubation of the solutions at 40° C. The results are given in Table B below, where the columns headed "Bc Time" refers to the bactericidal time in minutes.

Data set [3] is described as follows: positive chlorine concentration before and after 14 day incubation of solutions at pH 7.0, 40° C., Table B. Conditions: for decomposition over the test period (in words): 14 days, 40° C., pH 7.0; for Final Concn. of positive chlorine: after 14 day incubation at 40° C.; for Final Concn. of positive chlorine / Initial Concn. of positive chlorine: 0.1M phosphate pH 7.0; for Initial Concn. of positive chlorine: before incubation. It is filed as physicochemical. How it is done:
as §2, §3

The nature of data set [4]: hydrolytic stability in 0.1M sodium dihydrogen phosphate pH 7.0 at 40° (first-order kinetics), Table C. The format is physicochemical. Conditions: for half-life: 0.1m phosphate buffer; for half-life / Rate Constant k: 0.1M phosphate pH 7.0, 40°; for Rate Constant k: first-order. The method, then:
A further measure of the relative stabilities of the reference and claimed species was obtained by measuring the hydrolytic stability of the various species in 0.1M sodium dihydrogen phosphate buffered to pH 7.0 at 40°. For each species, the rate of change in the concentration of positive chlorine in the solution was measured by the volume of standard thiosulfate required to titrate a series of aliquots of a standard volume of the solution at various time intervals using potassium iodide/sodium thiosulfate as detailed above. The volumes of thiosulfate required to titrate each sample so obtained were interpreted as first-order kinetic processes. The hydrolytic stabilities of the reference and claimed species under the experimental conditions were characterized by the reaction rate constants and half-lives obtained from a linear regression analysis of the experimental data. The results obtained are given in Table C below and are also shown in FIG. 1 where the volumes in milliliters of standard thiosulfate required to titrate the positive chlorine in the various samples are plotted as ordinate against time in days as abscissa.

Data set [5] is described as follows: stability in the neat state (% chlorine by iodometric titration), Table D. The format is physicochemical. Conditions: 40° C. The method, then:
In those instances, the data were acquired at ambient temperature (approximately 23° C.). The method used was similar to that described above in which the rate of disappearance of "positive" chlorine was followed iodometrically by titration of iodine liberated from added potassium iodide with standard sodium thiosulfate solution. Samples of the compounds were individually sealed in ampoules and stored in the dark at 23° C. or 40° C. and weighed amounts removed from time to time for analysis.
For each of the compounds analyzed as indicated above, percent chlorine was plotted as ordinate against time in days as abscissa on semi-logarithmic paper and the points connected by a smooth curve for each compound.

Broadly, the half-life is the time needed for the level to fall by half in the phase considered. A high value points to slow decline.

The structures appear in SMILES notation.

In the case of `CC1(C)COC(=O)N1Cl` [Example 1F, 3-Chloro-4,4-dimethyl-2-oxazolidinone], the “Bactericidal Time” value was determined as 5 min in data set [1] (148 ppm +Cl), 5 min in data set [1] (195 ppm +Cl), 3 min in data set [1] (368 ppm +Cl) and 2 min in data set [1] (508 ppm +Cl). Further, the “Bc Time, final” value in data set [2] (after 14 day incubation at 40° C.) was determined as 2 min. Besides, in data set [2], the “bactericidal activity after the test period (in words)” value is “retained the original level of bactericidal activity”. For the same compound, the “Bc Time, initial” value in data set [2] is 2 min. Besides, in data set [3], the “decomposition over the test period (in words)” value is reported as “decomposed only slightly over the test period”. Moreover, in data set [3], the “Final Concn. of positive chlorine” value was 527 ppm +Cl. Also, in data set [3], the “Initial Concn. of positive chlorine” value is 534 ppm +Cl. Moreover, the half-life in data set [4] (hydrolysis) was 84.9 days. In data set [4] (hydrolysis), the “Rate Constant k” value was found to be 0.00034 h⁻¹. Moreover, in data set [4] (pH 7.0, 40°), the “hydrolytic stability (in words)” value was “unusual stability”. The “% Cl, neat” value worked out at 23.4% in data set [5] (0 Days); 23.0% in data set [5] (1 Day); 23.8% in data set [5] (2 Days); 23.5% in data set [5] (7 Days); 24.2% in data set [5] (35 Days); 23.3% in data set [5] (49 Days). Moreover, the “stability in the neat state (in words)” value in data set [5] is listed as “surprising stability”.

`CC1(C)CN(Cl)C(=O)O1` [Example 1G, 3-Chloro-5,5-dimethyl-2-oxazolidinone]: in data set [1] (473 ppm +Cl), the “Bactericidal Time” value came out at 7 min. Moreover, the “bactericidal activity after the test period (in words)” value in data set [2] is “retained a good measure of bactericidal activity superior to each of the reference species”. In addition, the “Bc Time, initial” value in data set [2] was found to be 7 min. Besides, the “decomposition over the test period (in words)” value in data set [3] was “substantially decomposed over the test period”. The “Final Concn. of positive chlorine” value in data set [3] was 43 ppm +Cl. Further, the “Initial Concn. of positive chlorine” value in data set [3] was found to be 473 ppm +Cl. The compound also showed a half-life in data set [4] (hydrolysis) of 3.61 days. The “Rate Constant k” value in data set [4] (hydrolysis) came to 0.008 h⁻¹. For the same compound, the “half-life relative to the half-lives of the reference species” value in data set [4] (hydrolysis, pH 7.0, 40°) was “around twice to eight times as great”. Moreover, the “hydrolytic stability (in words)” value in data set [4] (pH 7.0, 40°) was “somewhat less stable than the corresponding 4,4-dimethyl compound”. Also, the “% Cl, neat” value was determined as 19.6% in data set [5] (0 Days); 22.1% in data set [5] (1 Day); 23.7% in data set [5] (4 Days); 16.5% in data set [5] (7 Days); 18.1% in data set [5] (11 Days); 14.4% in data set [5] (15 Days). For the same compound, the “% Cl, neat” value in data set [5] (19 Days) is 10.0%; in data set [5] (22 Days), 0%. In addition, the “stability in the neat state (in words)” value in data set [5] was “surprising stability”.

The values above are taken from US4000293A, “Method of inhibiting bacterial growth with certain selected 3-chloro-2-oxazolidinones” (Interx Research Corporation, priority 1975, dated 1976).
